Laboratory results published in US10342749B2, “Antiperspirant compositions comprising alums” (Conopco, Inc., priority 2014, dated 2019).

What was measured:
[1] = system: human skin; experiment: Mitigation of irritation by inorganic base (inventors' research); assay type: in vivo; conditions: as third salt (metal oxide)
[2] = at 30° C.; cited from earlier work

## [O]=[Zn] [zinc oxide]
[1]
  mitigating irritation: ineffective
[2]
  water solubility: 1.6 µg/mL
